The record followed here is patent publication US20120015957A1, “PIPERAZINYL DERIVATIVES USEFUL AS MODULATORS OF THE NEUROPEPTIDE Y2 RECEPTOR” (priority 2007, published 2012).

For orientation: IC50 means the concentration that gives 50% inhibition.

The target in this assay is T1, NPY Y2 receptor (Homo sapiens, UniProt P49146).
T1 construct: endogenous in cells; host or cells: KAN-Ts cells (membrane preparation)
T1 sequence (P49146 1-381): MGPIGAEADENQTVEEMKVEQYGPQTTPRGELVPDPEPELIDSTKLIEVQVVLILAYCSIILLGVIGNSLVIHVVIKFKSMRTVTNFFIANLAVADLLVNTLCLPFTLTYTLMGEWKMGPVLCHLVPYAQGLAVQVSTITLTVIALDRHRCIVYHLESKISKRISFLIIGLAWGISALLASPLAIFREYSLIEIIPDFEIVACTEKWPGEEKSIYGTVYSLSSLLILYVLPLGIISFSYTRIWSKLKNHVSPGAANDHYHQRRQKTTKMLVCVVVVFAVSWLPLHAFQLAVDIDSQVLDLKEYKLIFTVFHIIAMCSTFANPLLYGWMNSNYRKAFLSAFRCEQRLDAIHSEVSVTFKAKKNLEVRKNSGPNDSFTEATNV
As to the kind of experiment: Neuropeptide Y2 radioligand binding assay ([125I]PYY, KAN-Ts cell membranes). Conditions: membranes of KAN-Ts cells endogenously expressing Y2 receptors; [125I]PYY 80 pM; 1 h at rt; read-out: IC50 (μM), NPY Y2 binding. Here is the method: KAN-Ts endogenously expressing Y2 receptors were used for the radioligand binding assay. Cells were grown to confluence on 150 cm^2 tissue culture plates, washed with phosphate-buffered saline (PBS), and scraped into 50 mL tubes. After centrifugation, the supernatant was aspirated, and the pellets frozen and stored at −80° C. Thawed pellets were homogenized with a polytron tissue grinder for 15 sec in 20 mM Tris-HCl, 5 mM EDTA. The homogenate was centrifuged at 800×g for 5 min and the collected supernatant was recentrifuged at 25000×g for 25 min. The resulting pellet was resuspended in binding buffer (20 mM HEPES, 120 mM NaCl, 0.22 mM KH2PO4, 1.3 mM CaCl2, 0.8 mM MgSO4). Membranes were incubated with [^125I]PYY (80 pM) in the presence or absence of test compound for 1 h at rt. The reaction was stopped by filtration through GF/C filter plates pre-soaked in 0.3% polyethylenimine and subsequently washed with Tris 50 mM, 5 mM EDTA buffer. Plates were dried for 1 h in a 55° C. oven, scintillation fluid was added and the radioactivity was counted in a Packard TopCount. Specific binding to the NPY receptor subtypes was determined by radioactivity that was bound in the presence of […] NPY. Each binding experiment was repeated three to eight times, each in duplicate. IC50 values (i.e. concentration of unlabelled peptide or antagonist required to compete for 50% of specific binding to the radioligand) were determined using the GraphPad Prism software (GraphPad Software Inc., San Diego Calif.) with a fit to a sigmoidal dose response curve. Apparent K values were as K=IC50/(1+C/KD), where C is concentration of the radioligand.
On to `CCN(CC)C(=O)C(c1cc(F)ccc1Br)N1CCN(c2ccc(-c3nc(C)no3)cc2F)CC1` (stereo not shown) [Compound 209, 2-(2-Bromo-5-fluoro-phenyl)-N,N-diethyl-2-{4-[2-fluoro-4-(3-methyl-[1,2,4]oxadiazol-5-yl)-phenyl]-piperazin-1-yl}-acetamide], for which the IC50 was 0.99 µM.

`CCN(CC)C(=O)C(c1ccc(F)cc1)N1CCN(c2ccc(-c3nc(C)no3)cc2F)CC1` (stereo not shown) [Compound 210, N,N-Diethyl-2-{4-[2-fluoro-4-(3-methyl-[1,2,4]oxadiazol-5-yl)-phenyl]-piperazin-1-yl}-2-(4-fluoro-phenyl)-acetamide]: the 50% inhibitory concentration (IC50) is 0.29 µM.

In the case of `CCN(CC)C(=O)C(c1cccc(F)c1)N1CCN(c2ccc(-c3nc(C)no3)cc2F)CC1` (stereo not shown) [Compound 211, N,N-Diethyl-2-{4-[2-fluoro-4-(3-methyl-[1,2,4]oxadiazol-5-yl)-phenyl]-piperazin-1-yl}-2-(3-fluoro-phenyl)-acetamide], the IC50 amounted to 0.083 µM.

`CCN(CC)C(=O)C(c1ccccc1)N1CCN(c2ccc(-c3nnc(C(C)C)[nH]3)cc2F)CC1` (stereo not shown) [Compound 212, N,N-Diethyl-2-{4-[2-fluoro-4-(5-isopropyl-2H-[1,2,4]triazol-3-yl)-phenyl]-piperazin-1-yl}-2-phenyl-acetamide]: the IC50 was 0.83 µM.

With `COC(=O)C(c1ccccc1)N1CCN(c2ccc(-c3nc(C(C)C)no3)cc2F)CC1` (stereo not shown) [Compound 213, {4-[2-Fluoro-4-(3-isopropyl-[1,2,4]oxadiazol-5-yl)-phenyl]-piperazin-1-yl}-phenyl-acetic acid methyl ester], the IC50 came out at 0.24 µM.

For `CCN(CC)C(=O)C(c1ccccc1)N1CCN(c2ccc(-c3ccccc3OC)cc2F)CC1` (stereo not shown) [Compound 214, N,N-Diethyl-2-[4-(3-fluoro-2′-methoxy-biphenyl-4-yl)-piperazin-1-yl]-2-phenyl-acetamide], the IC50 was 0.078 µM.

With `CCN(CC)C(=O)C(c1ccccc1)N1CCN(c2ccc(-c3nc(C)n(C)n3)cc2F)CC1` (stereo not shown) [Compound 215, 2-{4-[4-(1,5-Dimethyl-1H-[1,2,4]triazol-3-yl)-2-fluoro-phenyl]-piperazin-1-yl}-N,N-diethyl-2-phenyl-acetamide], the IC50 turned out to be 1.1 µM.

Turning to `CCN(CC)C(=O)C(c1ccccc1)N1CCN(c2ccc(-c3nc(C(C)C)n(C)n3)cc2F)CC1` (stereo not shown) [Compound 216, N,N-Diethyl-2-{4-[2-fluoro-4-(5-isopropyl-1-methyl-1H-[1,2,4]triazol-3-yl)-phenyl]-piperazin-1-yl}-2-phenyl-acetamide], the IC50 is 1.95 µM.

As to `Cc1noc(-c2ccc(N3CCN(C(C(=O)OC(C)(C)C)c4ccccc4)CC3)c(F)c2)n1` (stereo not shown) [Compound 219, {4-[2-Fluoro-4-(3-methyl-[1,2,4]oxadiazol-5-yl)-phenyl]-piperazin-1-yl}-phenyl-acetic acid tert-butyl ester], the half-maximal inhibitory concentration (IC50) came out at 0.66 µM.

As to `CCN(CC)C(=O)C(c1ccccc1)N1CCN(c2ccc(-c3nc(C(C)C)nn3C)cc2F)CC1` (stereo not shown) [Compound 220, N,N-Diethyl-2-{4-[2-fluoro-4-(5-isopropyl-2-methyl-2H-[1,2,4]triazol-3-yl)-phenyl]-piperazin-1-yl}-2-phenyl-acetamide], the IC50 turned out to be 1 µM.

As for `CCN(CC)C(=O)C(c1ccccc1)N1CCN(c2ccc(-c3nc(C(C)C)no3)cc2C(N)=O)CC1` (stereo not shown) [Compound 221, 2-[4-(Diethylcarbamoyl-phenyl-methyl)-piperazin-1-yl]-5-(3-isopropyl-[1,2,4]oxadiazol-5-yl)-benzamide], the concentration for half-maximal inhibition (IC50) was 2.1 µM.

`CCOC(=O)C(C)(c1ccccc1)N1CCN(c2ccc(-c3nc(C)no3)cc2F)CC1` (stereo not shown) [Compound 226, 2-{4-[2-Fluoro-4-(3-methyl-[1,2,4]oxadiazol-5-yl)-phenyl]-piperazin-1-yl}-2-phenyl-propionic acid ethyl ester]: the half-inhibitory concentration (IC50) is 1 µM.

Take `CCN(CC)C(=O)C(c1ccc(OC)cc1)N1CCN(c2ccc(-c3nc(C)no3)cc2C#N)CC1` (stereo not shown) [Compound 250, 2-{4-[2-Cyano-4-(3-methyl-[1,2,4]oxadiazol-5-yl)-phenyl]-piperazin-1-yl}-N,N-diethyl-2-(4-methoxy-phenyl)-acetamide]: the IC50 is 0.035 µM.
